{
  "source": "patent US20080255243A1",
  "about": "“Stat3 as a theranostic indicator” (priority 2007, published 2008)",
  "key": {"[1]": {"system": "Rh30 alveolar cells xenograft", "experiment": "Rh30 alveolar rhabdomyosarcoma orthotopic mouse xenograft, tumor growth", "format": "in vivo", "details": "SCID-beige mice, 20 mg/kg IP every 3 days for 30 days, vs vehicle, n=8, p=0.0002 (Student's t-test)", "description": "(§1) 2×10^6 cells in 0.2 mL total volume per mouse, from either Rh30 alveolar or RD embryonal cell lines, were injected orthotopically into the left hind leg gastrocnemius muscle of a SCID beige murine model. After 1 week, mice were assigned to control (n=8) or CCI-779 treatment groups (n=8). […] (FIG. 6C) CCI-779 was administered at 20 mg/kg/IP every 3 days for 30 days. Protein extracts from Rh30 and RD mouse xenograft tumors or uninvolved muscle were treated with CCI-779 or vehicle for 30 days and analyzed by Western blotting for S6 and 4EBP1 phosphorylation. […] 5. In vivo xenograft tumor model. Animal studies were performed in accordance with guidelines of the National Institutes of Health Animal Care and Use Committee. Female 4-6 week old beige-SCID mice were purchased from Charles River Laboratories (Wilmington, Mass.). […] Tumor growth was measured every 3 days with calipers, and tumor volume was calculated by the formula V (mm^3)=a×b^2, where a is the longest tumor axis, and b is the shortest tumor axis. […] Suppression of the mTOR pathway was monitored by measuring the phosphorylation of 4EBP1 and S6 ribosomal protein, which are well-established downstream targets of mTOR."}, "[2]": {"system": "RD embryonal cells xenograft", "experiment": "RD embryonal rhabdomyosarcoma orthotopic mouse xenograft, tumor growth", "format": "in vivo", "details": "SCID-beige mice, 20 mg/kg IP every 3 days for 30 days, vs vehicle, n=8, p=0.00008 (Student's t-test)", "description": "as §1"}, "[3]": {"system": "phosphorylation of 4EBP1 and S6 ribosomal protein (mTOR downstream targets)", "experiment": "Western blotting of xenograft tumor and uninvolved muscle extracts for phosphorylation of mTOR downstream targets", "format": "in vivo, mouse", "details": "for phosphorylation of 4EBP1 and S6 (mTOR downstream targets): 20 mg/kg IP every 3 days for 30 days", "description": "2×10^6 cells in 0.2 mL total volume per mouse, from either Rh30 alveolar or RD embryonal cell lines, were injected orthotopically into the left hind leg gastrocnemius muscle of a SCID beige murine model. After 1 week, mice were assigned to control (n=8) or CCI-779 treatment groups (n=8). […] (FIG. 6C) CCI-779 was administered at 20 mg/kg/IP every 3 days for 30 days. Protein extracts from Rh30 and RD mouse xenograft tumors or uninvolved muscle were treated with CCI-779 or vehicle for 30 days and analyzed by Western blotting for S6 and 4EBP1 phosphorylation. […] 5. In vivo xenograft tumor model. Animal studies were performed in accordance with guidelines of the National Institutes of Health Animal Care and Use Committee. Female 4-6 week old beige-SCID mice were purchased from Charles River Laboratories (Wilmington, Mass.). Two million viable cells harvested from mid confluent cultures of either Rh30 alveolar or RD embryonal cells in 0.2 ml diluent (5% Tween-80, 5% polyethylene glycol-400 (Sigma, St. Louis, Mo.)) were injected orthotopically into the gastrocnemius muscle in the left hind leg, and after 1 week mice were randomly assigned to control (n=8) or CCI-779 treatment groups (n=8). Mice were treated IP every 3 days for 30 consecutive days with 20 mg/kg/IP of CCI-779 (Developmental Therapeutics Program, National Cancer Institute and Wyeth, Madison, N.J.) or vehicle alone. Tumor growth was measured every 3 days with calipers, and tumor volume was calculated by the formula V (mm^3)=a×b^2, where a is the longest tumor axis, and b is the shortest tumor axis. All mice were sacrificed by asphyxiation with CO2 and underwent necropsy for confirmation of tumor growth. Tumors were excised and snap frozen at -80° C. until analysis. […] Suppression of the mTOR pathway was monitored by measuring the phosphorylation of 4EBP1 and S6 ribosomal protein, which are well-established downstream targets of mTOR."}},
  "data": [
    {"smiles": "CO[C@H]1C[C@@H]2CC[C@@H](C)[C@@](O)(O2)C(=O)C(=O)N2CCCC[C@H]2C(=O)O[C@H]([C@H](C)C[C@@H]2CC[C@@H](OC(=O)C(C)(CO)CO)[C@H](OC)C2)CC(=O)[C@H](C)/C=C(\\C)[C@@H](O)[C@@H](OC)C(=O)[C@H](C)C[C@H](C)/C=C/C=C/C=C/1C", "note": "[CCI-779, 40-[3-hydroxy(hydroxymethyl)methylpropanoate]-rapamycin]", "values": [
      {"measurement": "tumor growth / tumor volume measured with calipers", "setting": "[1]", "value": "profoundly reduced the growth"},
      {"measurement": "tumor growth / tumor volume measured with calipers", "setting": "[1]; 20 mg/kg", "value": "less in the CCI-779 treatment group as compared to the vehicle alone"},
      {"measurement": "tumor growth / tumor volume measured with calipers", "setting": "[2]", "value": "profoundly reduced the growth"},
      {"measurement": "tumor growth / tumor volume measured with calipers", "setting": "[2]; 20 mg/kg", "value": "less in the CCI-779 treatment group as compared to the vehicle alone"},
      {"measurement": "phosphorylation of 4EBP1 and S6 (mTOR downstream targets)", "setting": "[3]; RD embryonal xenograft derived tumors", "value": "inhibited the phosphorylation of these downstream targets"},
      {"measurement": "phosphorylation of 4EBP1 and S6 (mTOR downstream targets)", "setting": "[3]; Rh30 alveolar xenograft derived tumors", "value": "inhibited the phosphorylation of these downstream targets"},
      {"measurement": "phosphorylation of mTOR pathway substrates pS6 Ser235/236 and 4EBP1 Thr70", "setting": "[3]; time dependent, non-involved muscle and tumor tissue, compared to actin (FIG. 6A)", "value": "inhibited phosphorylation of mTOR pathway substrates"}
    ]}
  ]
}
